Experimental data from US20070142480A1, “Alleviation of pain in osteoarthritis by means of intra-articular implantation of perfluorodecalin” (priority 2005, published 2007).

Experiments:
[1] = cited from earlier work
[2] = cited from earlier work; remark: listed apart in the source
[3] = test system: patients with symptomatic knee OA; experiment: single group, open-label study of weekly intra-articular injections in outpatients with symptomatic knee OA; format: in vivo, human; settings: for WOMAC score: baseline 5±2, p<0.001
Protocol: The efficacy of treatment was determined by a validated clinical test method and side effects recorded. This was a single group, open-label study, including outpatients of both sexes, aged between 18 and 85 years, with symptomatic knee OA. All patients (25) underwent weekly intra-articular injections of perfluorodecalin for 5 consecutive weeks and were followed-up for 10 additional weeks. The safety and tolerability profile (primary end-point) was assessed by adverse event reporting. The secondary endpoint was efficacy evaluated by changes in the Western Ontario and McMaster Universities (WOMAC) score vs. baseline. Patient and physician satisfaction were also recorded.

## FC1(F)C(F)(F)C(F)(F)C2(F)C(F)(F)C(F)(F)C(F)(F)C(F)(F)C2(F)C1(F)F (centres unmarked) [Perfluorodecalin]
[1]; 37° C.
  Vapor pressure at 37° C.: 14 mm Hg
[1]
  CO2 solubility: 1400 mL/L
  O2 solubility: 490 mL/L
[2]
  solubility in water and in traditional organic solvents: insoluble
[3]; 25 patients, 5 weekly intra-articular injections, 10 additional weeks follow-up
  serious treatment-related adverse events: no serious treatment-related adverse events were reported
[3]; 25 patients, weekly intra-articular injections for 5 consecutive weeks
  most frequent adverse event: pain at the injection site: 10 % of the injections
[3]; after intra-articular injection
  duration of relief of pain, on average: one week
[3]; based on sustained improvements in WOMAC score and subscores
  carry-over effect after the last injection: at least 3 weeks
[3]; end of the injection series, week 6
  WOMAC score: 2±1.5
[3]; from week 4
  WOMAC subscore 'pain': significantly reduced
[3]; from week 6
  WOMAC subscore 'physical function': significantly reduced
  WOMAC subscore 'stiffness': significantly reduced
[3]; intra-articular, adverse event reporting
  safety and tolerability profile: generally well tolerated
[3]; within the first 2 weeks of treatment
  WOMAC score: 3±2
